Article PMC11232109, “Synthesis, anticancer evaluation of novel hybrid pyrazole-based chalcones, molecular docking, DNA fragmentation, and gene expression: in vitro studies” (RSC Advances, 2024)
Like-named read-outs stand apart in the source and are kept apart here. Marks after values point to notes of the source that are not given here.

What was measured:
MCF-7 = experiment: Comet assay (DNA damage), breast cancer cell line; type: cell-based, human; settings: for DNA damaged cells% (mean ± SEM): MCF-7, comet assay, −ve 9.63 ± 0.64; for No. of cells, Comets: MCF-7, of 405 cells analyzed; for No. of cells, Class 0 / No. of cells, Class 1 / No. of cells, Class 2 / No. of cells, Class 3: MCF-7, of 405 cells; for No. of cells, Class 0: class 0 = no tail; for No. of cells, Class 1: class 1 = tail length < diameter of nucleus; for No. of cells, Class 2: class 2 = tail length between 1× and 2× the diameter of nucleus; for No. of cells, Class 3: class 3 = tail length > 2× the diameter of nucleus
Procedure: Olive et al. (1990) used pancreatic and breast cancer cell lines to measure the DNA damage using the comet test.[53] Approximately 1.5 × 10^4 cells were imbedded in 0.75% low-gelling-temperature agarose after trypsin treatment to generate a single-cell suspension, which was then quickly pipetted onto a pre-coated microscope slide. Cell samples were lysed in 0.5% SDS, 30 mM EDTA, pH 8.0, for four hours at 50 °C. Samples were electrophoresed for 25 minutes at 0.6 V cm^−1 after being rinsed overnight at room temperature in Tris/borate/EDTA buffer, pH 8.0. Propidium iodide was then added for staining. A fluorescent microscope equipped with a CCD camera was used to observe the slides, and 150 unique comet photos from each sample were examined to determine the tail moment, DNA content, and percentage of DNA in the tail. To find the fraction of cells with DNA damage that resemble comets in each sample, around 100 cells were analyzed. Based on perceived comet tail length migration and relative proportion of DNA in the nucleus, the non-overlapping cells were randomly chosen and visually assigned a score on an arbitrary scale of 0–3. Class 0 = no detectable DNA damage and no tail; class 1 = tail with a length less than the nucleus diameter; class 2 = tail with length between 1× and 2× the nuclear diameter; and class 3 = tail longer than 2× the nucleus diameter.[54]

[1] = tested on: PACA2 (pancreatic carcinoma); experiment: MTT assay, PACA2; type: cell-based; settings: for cytotoxicity at 100 µg/mL / IC50: Homo sapiens; for IC50: 48 hours
Procedure: (§1) The percentage of the cell viability treated with the newly synthesized compounds was evaluated using MTT assay (3-(4,5-dimethylthiazol-2-yl)-2,5-diphenyl tetrazolium bromide). All the subsequent steps were done in a sterile Laminar flow class II biosafety cabinet (Baker, SG406INT, Sanford, ME, USA). DMEM was used as a suspension medium for breast cancer (MCF7), prostate cancer (PC3), and pancreatic cancer (PACA2), while normal cell line (BJ1) was suspended in DMEM-F12 medium, a 1% antibiotic-antimycotic mixture (10 000 U ml^−1 potassium penicillin, 10 000 μg ml^−1 streptomycin sulfate, and 25 μg ml^−1 amphotericin B), and 1% L-glutamine at 37 °C under 5% CO2.
(§2) Cells were cultured for 10 days and then seeded at a concentration of 10 × 10^4 cells per well in fresh complete growth medium in 96-well microtiter plastic plates at 37 °C for 24 hours under 5% CO2 using a water-jacketed carbon dioxide incubator (Sheldon, TC2323). Media were aspirated, serum-free fresh medium was added, and cells were incubated either alone (negative control) or with different concentrations of the synthesized chalcone derivatives to a final concentration of (100–50–25–12.5–6.25–3.125–0.78 and 1.56 μg ml^−1). After incubation for 48 hours, the medium was aspirated and 40 μl of MTT salt ([…]) was added to each well and incubated for another four hours at 37 °C under 5% CO2. To stop the reaction and dissolve the formed crystals, 200 μl of 10% sodium dodecyl sulfate (SDS) in deionized water was added to each well and incubated overnight at 37 °C.
(§3) The absorbance was then measured at 595 nm and a reference wavelength of 620 nm using a microplate multi-well reader (Bio-Rad Laboratories Inc., model 3350). Statistical significance was tested between the samples and the negative control (cells with vehicle) using an independent t-test using the SPSS 11 program. DMSO was the vehicle used for the dissolution of the synthesized chalcones, and its final concentration on the cells was less than 0.2%. The percentage of change in viability was calculated according to the formula: ((reading of extract/reading of negative control) − 1) × 100. A Probit analysis was carried out for the determination of IC50 using the SPSS 11 program.

PC3 (prostatic cancer) = experiment: MTT assay, PC3; type: cell-based
Procedure: as §1, §2, §3

[2] = MTT assay, normal cell line BJ1; type: cell-based; settings: human, at 100 μg ml^−1, 48 hours, read-out: (%) Mortality of BJ1
Procedure: as §1, §2, §3

[3] = tested on: MCF7 (human breast adenocarcinoma); experiment: MTT assay, MCF7; type: cell-based; settings: for IC50 / cytotoxicity at 100 µg/mL: Homo sapiens; for IC50: 48 hours
Procedure: as §1, §2, §3

SMILES	No. of cells, Comets (MCF-7)	No. of cells, Class 0 (MCF-7)	No. of cells, Class 1 (MCF-7)	No. of cells, Class 2 (MCF-7)	No. of cells, Class 3 (MCF-7)	cytotoxicity at 48 h, 100 μg ml^−1 ([2]; BJ1 normal skin fibroblasts) [%]	IC50 ([3]; MCF7, MTT) [µM]	IC50 ([1]; PaCa-2, MTT) [µM]	further results
COc1cccc2c1C(=O)c1c(O)c3c(c(O)c1C2=O)C[C@@](O)(C(=O)CO)C[C@@H]3O[C@H]1C[C@H](N)[C@H](O)[C@H](C)O1 [Doxorubicin, reference compound]	89	316	27	33	29	100	48 ± 0.74	–	DNA damaged cells% (mean ± SEM) (MCF-7; listed as Dox): 21.98 ± 0.91^b %; cytotoxicity at 100 µg/mL ([1]; PaCa-2, at 100 μg ml^−1, 48 hours, MTT, read-out: (%) Mortality of PACA2): 100%; cytotoxicity at 100 µg/mL (PC3 (prostatic cancer); Homo sapiens, at 100 μg ml^−1, 48 hours, MTT, read-out: (%) Mortality of PC3): 100%; cytotoxicity at 100 µg/mL ([3]; MCF7, at 100 μg ml^−1, 48 hours, MTT, read-out: (%) Mortality of MCF7): 100%
Cc1nn(-c2ccccc2)c(C=CC(=O)c2c(-c3cccs3)nn(-c3ccc([N+](=O)[O-])cc3)c2C)c1Cl [Compound 7d, 3-(4-Chloro-3-methyl-1-phenyl-1H-pyrazol-5-yl)-1-(5-methyl-1-(4-nitrophenyl)-3-(thiophen-2-yl)-1H-pyrazol-4-yl)prop-2-en-1-one]	105	300	30	41	34	12.3 ± 0.23	42.6 ± 0.71	51.9 ± 0.29	DNA damaged cells% (mean ± SEM) (MCF-7): 25.93 ± 1.08^a %; cytotoxicity at 100 µg/mL ([1]; PaCa-2, 48 h, at 100 μg ml^−1, 48 hours, MTT, read-out: (%) Mortality of PACA2): 70 to 80%; cytotoxicity ([1]; at 100 μg ml^−1, 48 hours, MTT, read-out: (%) Mortality of PACA2): 80.3 ± 19%; cytotoxicity at 100 µg/mL (PC3 (prostatic cancer); Homo sapiens, 48 h, at 100 μg ml^−1, 48 hours, MTT, read-out: (%) Mortality of PC3): 70 to 80%; IC50 (PC3 (prostatic cancer); Homo sapiens, MTT, 48 hours): 66.9 ± 0.98 µM; cytotoxicity (PC3 (prostatic cancer); at 100 μg ml^−1, 48 hours, MTT, read-out: (%) Mortality of PC3): 70.6 ± 0.97%; cytotoxicity at 100 µg/mL ([3]; MCF7, 48 h, at 100 μg ml^−1, 48 hours, MTT, read-out: (%) Mortality of MCF7): 70 to 80%; cytotoxicity ([3]; at 100 μg ml^−1, 48 hours, MTT, read-out: (%) Mortality of MCF7): 71.2 ± 0.14%
Cc1c(C(=O)C=Cc2nn(-c3ccccc3)cc2-c2ccc([N+](=O)[O-])cc2)c(-c2cccs2)nn1-c1ccc([N+](=O)[O-])cc1 [Compound 9e, 1-(5-Methyl-1-(4-nitrophenyl)-3-(thiophen-2-yl)-1H-pyrazol-4-yl)-3-(4-(4-nitrophenyl)-1-phenyl-1H-pyrazol-3-yl)prop-2-en-1-one]	–	–	–	–	–	–	59.3 ± 0.85	27.6 ± 0.33	cytotoxicity at 100 µg/mL ([1]; PaCa-2, 48 h, read-out: (%) Mortality of PACA2): 100%; cytotoxicity at 100 µg/mL (PC3 (prostatic cancer); Homo sapiens, 48 h, read-out: (%) Mortality of PC3): 5.3 ± 0.94%; cytotoxicity at 48 h, 100 μg ml^−1 [2]: 5.6 ± 0.55%; cytotoxicity at 100 µg/mL ([3]; MCF7, 48 h, read-out: (%) Mortality of MCF7): 14.2 ± 0.37%
